Measurements: patent US8198268B2, “Tianeptine sulfate salt forms and methods of making and using the same” (Janssen Biotech, Inc., priority 2008, dated 2012)

Tested on: mouse
Test: Behavioral despair test in mouse (forced swim test), IP administration
[1] = STUDY A, 150 mg/kg i.p. 30 min prior to testing, 150 mg/kg
[2] = STUDY A, 150 mg/kg i.p. 30 min prior to testing, hemisulfate monohydrate, 150 mg/kg

## CN1c2ccccc2C(NCCCCCCC(=O)O)c2ccc(Cl)cc2S1(=O)=O (stereo not shown) [tianeptine sodium, reference compound]
[1]
  Duration of Immobility % change from control: −50%
  Duration of Immobility mean ± s.e.m.: 102.0 ± 13.0 s

## CN1c2ccccc2C(NCCCCCCC(=O)O)c2ccc(Cl)cc2S1(=O)=O (stereo not shown) [tianeptine hemisulfate monohydrate, 7-[(3-chloro-6,11-dihydro-6-methyldibenzo[c,f][1,2]thiazepin-11-yl)amino]heptanoic acid S,S-dioxide hemisulfate monohydrate]
STUDY A, 100 mg/kg i.p. 30 min prior to testing
  Duration of Immobility mean ± s.e.m.: 83.1 ± 21.2 s
STUDY A, 100 mg/kg i.p. 30 min prior to testing, hemisulfate monohydrate, 100 mg/kg
  Duration of Immobility % change from control: −59%
[2]
  Duration of Immobility % change from control: −43%
  Duration of Immobility mean ± s.e.m.: 115.5 ± 13.6 s
STUDY A, 200 mg/kg i.p. 30 min prior to testing
  Duration of Immobility mean ± s.e.m.: 108.8 ± 19.8 s
STUDY A, 200 mg/kg i.p. 30 min prior to testing, hemisulfate monohydrate, 200 mg/kg
  Duration of Immobility % change from control: −46%
STUDY B, 30 mg/kg and 60 mg/kg i.p.
  abnormal behavior prior to the test: abnormal behavior (including Straub tail and circling) was observed in all ten mice
STUDY B, 30 mg/kg i.p. 30 min prior to testing
  Duration of Immobility mean ± s.e.m.: 25.8 ± 8.7 s
STUDY B, 30 mg/kg i.p. 30 min prior to testing, hemisulfate monohydrate, 30 mg/kg
  Duration of Immobility % change from control: −86%
STUDY B, 60 mg/kg i.p. 30 min prior to testing
  Duration of Immobility mean ± s.e.m.: 29.7 ± 9.7 s
STUDY B, 60 mg/kg i.p. 30 min prior to testing, hemisulfate monohydrate, 60 mg/kg
  Duration of Immobility % change from control: −83%
dose-range 30 mg/kg-200 mg/kg i.p.
  conclusion of STUDIES A and B: antidepressant-like activity

## CN(C)CCCN1c2ccccc2CCc2ccccc21 [Imipramine, reference compound]
STUDY A, 32 mg/kg i.p. 30 min prior to testing
  Duration of Immobility mean ± s.e.m.: 64.1 ± 16.1 s
STUDY A, 32 mg/kg i.p. 30 min prior to testing, 32 mg/kg
  Duration of Immobility % change from control: −68%
STUDY A, 32 mg/kg i.p. 30 min prior to testing, listed as imipramine hydrochloride, 32 mg/kg
  Duration of Immobility % change from control: −68%
STUDY B, 32 mg/kg i.p. 30 min prior to testing, 32 mg/kg
  Duration of Immobility % change from control: −88%
STUDY B, 32 mg/kg i.p. 30 min prior to testing, listed as imipramine hydrochloride, 32 mg/kg
  Duration of Immobility % change from control: −88%
